Results: ChEMBL document CHEMBL1201862, “PubChem BioAssay data set” (2004)
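Briefly, cells in 96-well plates were exposed to five compound concentrations for 48 h, and endpoints were estimated by linear interpolation. Abbreviation: GI50, concentration required for 50% inhibition of growth.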 The source made the active and inactive calls. Rule as the data show it: active = GI50 up to about 1.1 µM and inactive = higher.

What was measured:
Experiment in all cases: NCI tumour cell line growth inhibition, 48 h
SK-MEL-2 = test system: SK-MEL-2
PC-3 = test system: PC-3
IGROV-1 = test system: IGROV-1
SR = test system: SR
A498 = test system: A498
NCI-H226 = test system: NCI-H226
UO-31 = test system: UO-31
K562 = test system: K562
NCI/ADR-RES = test system: NCI/ADR-RES
SK-OV-3 = test system: SK-OV-3
U-251 = test system: U-251
HOP-62 = test system: HOP-62
SN12C = test system: SN12C
MOLT-4 = test system: MOLT-4
SF-295 = test system: SF-295
SNB-75 = test system: SNB-75
HOP-92 = test system: HOP-92
HCT-116 = test system: HCT-116

Measured: GI50

Cc1ccc(/C(=C\C(=O)C(=O)NC23CC4CC(CC(C4)C2)C3)Sc2ccccc2)cc1
inactive: SK-MEL-2 > 10 µM | PC-3 4.31 µM | IGROV-1 > 10 µM | SR > 10 µM | A498 > 10 µM | NCI-H226 > 10 µM | UO-31 > 10 µM | K562 4.76 µM | NCI/ADR-RES > 10 µM | SK-OV-3 > 10 µM | U-251 > 10 µM | HOP-62 > 10 µM | SN12C > 10 µM | MOLT-4 4.63 µM | SF-295 > 10 µM | SNB-75 > 10 µM

Clc1ccc(/C=C/c2nc(-c3ccc(Cl)cc3)cn3c2nc2ccccc23)cc1
inactive: SK-MEL-2 > 100 µM | PC-3 > 100 µM | IGROV-1 55.7 µM | SR > 100 µM | A498 > 100 µM | NCI-H226 > 100 µM | UO-31 > 100 µM | K562 > 100 µM | NCI/ADR-RES > 100 µM | SK-OV-3 > 100 µM | U-251 > 100 µM | HOP-62 > 100 µM | SN12C > 100 µM | MOLT-4 45.1 µM | HOP-92 > 100 µM | HCT-116 > 100 µM

CC(=O)/C(=C\c1ccc(Cl)c(Cl)c1)C(=O)C(C)CN(C)C (centres undefined)
inactive: PC-3 4.62 µM | IGROV-1 2.07 µM | SR 1.82 µM | A498 2.96 µM | NCI-H226 2.39 µM | UO-31 4.01 µM | NCI/ADR-RES 13.1 µM | SK-OV-3 16.5 µM | U-251 3.26 µM | HOP-62 19.1 µM | SN12C 6.73 µM | MOLT-4 2.19 µM | HOP-92 2.26 µM | HCT-116 2.13 µM | SF-295 4.32 µM

COc1cccc(C2c3cc4c(cc3OC(N3CCCCC3)C2C)OCO4)c1O (centres undefined)
inactive: SK-MEL-2 9.16 µM | PC-3 4.83 µM | IGROV-1 8.81 µM | SR 3.01 µM | NCI-H226 6.55 µM | UO-31 12.4 µM | K562 2.23 µM | NCI/ADR-RES 5.12 µM | SK-OV-3 6.79 µM | U-251 3.82 µM | HOP-62 4.11 µM | SN12C 4.69 µM | MOLT-4 3.96 µM | HOP-92 8.18 µM | HCT-116 4.89 µM | SF-295 4.26 µM | SNB-75 5.41 µM

c1ccc(/N=C2\c3ccccc3CN2c2ccccc2)cc1
inactive: SK-MEL-2 > 100 µM | PC-3 > 100 µM | IGROV-1 > 100 µM | SR > 100 µM | NCI-H226 > 100 µM | UO-31 > 100 µM | K562 > 100 µM | NCI/ADR-RES > 100 µM | SK-OV-3 > 100 µM | U-251 > 100 µM | HOP-62 > 100 µM | SN12C > 100 µM | MOLT-4 > 100 µM | HOP-92 46.5 µM | HCT-116 > 100 µM | SF-295 > 100 µM | SNB-75 74.3 µM

C[C@]12CC[C@H]3[C@@H](CCC4=C(Br)C(=O)C=C[C@@]43O)[C@@H]1CCC2=O
inactive: SK-MEL-2 40.9 µM | PC-3 37.8 µM | IGROV-1 36 µM | SR 8.34 µM | A498 49.2 µM | NCI-H226 > 100 µM | UO-31 42.2 µM | K562 32.7 µM | NCI/ADR-RES 27.2 µM | SK-OV-3 > 100 µM | U-251 52.6 µM | HOP-62 50 µM | SN12C 33.7 µM | MOLT-4 25.2 µM | HOP-92 32.2 µM | HCT-116 26.4 µM | SF-295 74.1 µM

O=c1cnn(C2OC(CO)C(O)C(F)C2O)c(=O)[nH]1 (centres undefined)
inactive: SK-MEL-2 > 100 µM | PC-3 > 100 µM | IGROV-1 > 100 µM | SR 8.55 µM | A498 40.8 µM | NCI-H226 > 100 µM | UO-31 > 100 µM | K562 > 100 µM | NCI/ADR-RES > 100 µM | SK-OV-3 > 100 µM | U-251 > 100 µM | SN12C > 100 µM | HOP-92 > 100 µM | HCT-116 > 100 µM | SF-295 > 100 µM

CC(C)CC(=O)NC(Nc1ccc(S(=O)(=O)Nc2ncccn2)cc1)(C(F)(F)F)C(F)(F)F
inactive: SK-MEL-2 > 100 µM | PC-3 > 100 µM | IGROV-1 > 100 µM | SR > 100 µM | NCI-H226 > 100 µM | UO-31 > 100 µM | K562 > 100 µM | NCI/ADR-RES > 100 µM | SK-OV-3 > 100 µM | U-251 > 100 µM | HOP-62 > 100 µM | SN12C > 100 µM | MOLT-4 > 100 µM | HOP-92 > 100 µM | HCT-116 > 100 µM | SF-295 > 100 µM | SNB-75 > 100 µM

Cc1cc2c(cc1C)C(=O)C1(C2)Cc2c(C)ccc(C)c2C1=O (centres undefined)
inactive: SK-MEL-2 > 100 µM | PC-3 > 100 µM | IGROV-1 98.4 µM | SR > 100 µM | NCI-H226 > 100 µM | UO-31 > 100 µM | K562 > 100 µM | NCI/ADR-RES > 100 µM | U-251 > 100 µM | SN12C > 100 µM | MOLT-4 > 100 µM | HOP-92 > 100 µM | HCT-116 > 100 µM | SF-295 > 100 µM | SNB-75 > 100 µM

OC(C#CCN1CCCC1)(c1ccccc1)c1ccccc1Cl (centres undefined)
inactive: SK-MEL-2 26.6 µM | PC-3 27.8 µM | IGROV-1 14.8 µM | SR 36.3 µM | A498 17.1 µM | NCI-H226 80.7 µM | UO-31 24.7 µM | K562 30.8 µM | NCI/ADR-RES 23.3 µM | SK-OV-3 61 µM | U-251 17.7 µM | HOP-62 19.5 µM | SN12C 43.9 µM | MOLT-4 33.7 µM | HCT-116 30.1 µM | SF-295 24.6 µM | SNB-75 59.4 µM

COC(=O)c1c2c(cc3c1CC1(Cc4cc5c(c(C(C)=O)c4C1)CCCC5)C3)CCCC2 (centres undefined)
inactive: SK-MEL-2 21.4 µM | PC-3 24.6 µM | IGROV-1 > 100 µM | SR 3.02 µM | A498 > 100 µM | NCI-H226 > 100 µM | K562 23.4 µM | NCI/ADR-RES > 100 µM | SK-OV-3 > 100 µM | U-251 > 100 µM | HOP-62 > 100 µM | SN12C > 100 µM | HOP-92 > 100 µM | HCT-116 60 µM | SF-295 > 100 µM

C[C@]12CCC3c4ccc(O)cc4CC[C@H]3C1CC(=O)N(CCN1CCCC1)C2=O (some centres undefined)
inactive: SK-MEL-2 > 10 µM | PC-3 > 10 µM | IGROV-1 > 10 µM | SR > 10 µM | A498 > 10 µM | NCI-H226 > 10 µM | UO-31 > 10 µM | K562 > 10 µM | NCI/ADR-RES > 10 µM | SK-OV-3 > 10 µM | U-251 > 10 µM | HOP-62 > 10 µM | SN12C > 10 µM | MOLT-4 > 10 µM | HCT-116 > 10 µM | SF-295 > 10 µM | SNB-75 7.96 µM
